Source: publication PMC9848300, “Discovery of novel enasidenib analogues targeting inhibition of mutant isocitrate dehydrogenase 2 as antileukaemic agents” (Journal of Enzyme Inhibition and Medicinal Chemistry, 2023)

Assays:
Assay type in all cases: cell-based
SK-MEL-28 = experiment: NCI 60 antitumor screening (single dose / five doses); conditions: Homo sapiens; SK-MEL-28 (melanoma), single dose 10 μM; read-out: Growth inhibition percentage (GI %)
HS 578T = experiment: NCI 60 antitumor screening (single dose); conditions: Homo sapiens; HS 578T (breast cancer), single dose 10 μM; read-out: Growth inhibition percentage (GI %)
Method: (§1) Initially, the anticancer effects of target compounds have been assessed at a single (10 μM) dose. The obtained data have been reported as mean-graph of the percent growth (G%) of the treated cancer cells. Percentage growth inhibition (GI%) is calculated (100 − G%) and pronounced in Table 1. […] Target compounds in series (III) with manipulated linkers disclosed lower potency. Superiorly, eight s-triazine derivatives from the three series (6a, 6c, 6d, 7a, 7g, 7i, 7l, and 8b) have shown potent broad-spectrum anticancer activity against most the examined cell lines, whereas most of the remaining triazine derivatives, 20 derivatives, have exerted selective anti-proliferative actions towards certain cancer cell lines (Supplementary).
(§2) The antitumor screening was performed for 60 human cancer cell lines under the protocol of NCI (www.dtp.nci.nih.gov), the Drug Evaluation Branch, Bethesda, MD. All submitted compounds were nominated based on the degree of structural diversity and computer modelling techniques for evaluation of their anticancer activity. The screening process for antineoplastic activity passes through two successive levels, starting with the assessment of target compounds at a single dose of 10 μM against 60 cancer cell lines on nine types of human tumours. These experiments were done on a triplicate following. The output from the single‐dose screening was covered as a mean graph, and then, analysed by the COMPARE program. Finally, the compounds which disclosed subpanel cancer cell growth (G %) equal to or less than 10% in at least eight cancer cell lines get to pass the assessment against the 60 cell lines at five doses (0.01–100 μM). By using GraphPad Prism version 9.0 (Graphpad Software Inc., La Jolla, CA), GI50, TGI, as well as LC50 dose‐response parameters were computed and presented for each compound (Supplementary information)[55–57].

OVCAR-8 = experiment: NCI 60 antitumor screening (single dose); conditions: Homo sapiens; OVCAR-8 (ovarian cancer), single dose 10 μM; read-out: Growth inhibition percentage (GI %)
Method: as §1, §2

KM 12 = experiment: NCI 60 antitumor screening (single dose); conditions: Homo sapiens, KM12; KM 12 (colon cancer), single dose 10 μM; read-out: Growth inhibition percentage (GI %)
Method: as §1, §2

OVCAR-3 = experiment: NCI 60 antitumor screening (single dose); conditions: Homo sapiens; OVCAR-3 (ovarian cancer), single dose 10 μM; read-out: Growth inhibition percentage (GI %)
Method: as §1, §2

A549/ATCC = experiment: NCI 60 antitumor screening (single dose); conditions: Homo sapiens; A549/ATCC (non-small cell lung cancer), single dose 10 μM; read-out: Growth inhibition percentage (GI %)
Method: as §1, §2

OVCAR-5 = experiment: NCI 60 antitumor screening (single dose); conditions: Homo sapiens; OVCAR-5 (ovarian cancer), single dose 10 μM; read-out: Growth inhibition percentage (GI %)
Method: as §1, §2

NCI-H226 = experiment: NCI 60 antitumor screening (single dose); conditions: Homo sapiens; NCI-H226 (non-small cell lung cancer), single dose 10 μM; read-out: Growth inhibition percentage (GI %)
Method: as §1, §2

NCI-H522 = experiment: NCI 60 antitumor screening (single dose); conditions: Homo sapiens; NCI-H522 (non-small cell lung cancer), single dose 10 μM; read-out: Growth inhibition percentage (GI %)
Method: as §1, §2

NCI-H23 = experiment: NCI 60 antitumor screening (single dose); conditions: Homo sapiens; NCI-H23 (non-small cell lung cancer), single dose 10 μM; read-out: Growth inhibition percentage (GI %)
Method: as §1, §2

PC-3 = experiment: NCI 60 antitumor screening (single dose); conditions: Homo sapiens; PC-3 (prostate cancer), single dose 10 μM; read-out: Growth inhibition percentage (GI %)
Method: as §1, §2

CAKI-1 = experiment: NCI 60 antitumor screening (single dose); conditions: Homo sapiens; CAKI-1 (renal cancer), single dose 10 μM; read-out: Growth inhibition percentage (GI %)
Method: as §1, §2

SK-OV-3 = experiment: NCI 60 antitumor screening (single dose); conditions: Homo sapiens; SK-OV-3 (ovarian cancer), single dose 10 μM; read-out: Growth inhibition percentage (GI %)
Method: as §1, §2

OVCAR-4 = experiment: NCI 60 antitumor screening (single dose); conditions: Homo sapiens; OVCAR-4 (ovarian cancer), single dose 10 μM; read-out: Growth inhibition percentage (GI %)
Method: as §1, §2

HOP-62 = experiment: NCI 60 antitumor screening (single dose); conditions: Homo sapiens; HOP-62 (non-small cell lung cancer), single dose 10 μM; read-out: Growth inhibition percentage (GI %)
Method: as §1, §2

NCI-H322M = experiment: NCI 60 antitumor screening (single dose); conditions: Homo sapiens; NCI-H322M (non-small cell lung cancer), single dose 10 μM; read-out: Growth inhibition percentage (GI %)
Method: as §1, §2

U251 = experiment: NCI 60 antitumor screening (single dose); conditions: Homo sapiens, U-251; U251 (CNS cancer), single dose 10 μM; read-out: Growth inhibition percentage (GI %)
Method: as §1, §2

NCI-H460 = experiment: NCI 60 antitumor screening (single dose); conditions: Homo sapiens; NCI-H460 (non-small cell lung cancer), single dose 10 μM; read-out: Growth inhibition percentage (GI %)
Method: as §1, §2

SF-268 = experiment: NCI 60 antitumor screening (single dose); conditions: Homo sapiens; SF-268 (CNS cancer), single dose 10 μM; read-out: Growth inhibition percentage (GI %)
Method: as §1, §2

MCF7 = experiment: NCI 60 antitumor screening (single dose); conditions: Homo sapiens; MCF7 (breast cancer), single dose 10 μM; read-out: Growth inhibition percentage (GI %)
Method: as §1, §2

T-47D = experiment: NCI 60 antitumor screening (single dose / five doses); conditions: Homo sapiens, T47D; T-47D (breast cancer), single dose 10 μM; read-out: Growth inhibition percentage (GI %)
HL-60(TB) = experiment: as above; conditions: Homo sapiens; HL-60(TB) (leukaemia), single dose 10 μM; read-out: Growth inhibition percentage (GI %)
SN 12C = experiment: as above; conditions: Homo sapiens, SN12C; SN 12C (renal cancer), single dose 10 μM; read-out: Growth inhibition percentage (GI %)
SK-MEL-5 = experiment: as above; conditions: Homo sapiens; SK-MEL-5 (melanoma), single dose 10 μM; read-out: Growth inhibition percentage (GI %)
DU-145 = experiment: as above; conditions: Homo sapiens; DU-145 (prostate cancer), single dose 10 μM; read-out: Growth inhibition percentage (GI %)
MOLT-4 = experiment: as above; conditions: Homo sapiens; MOLT-4 (leukaemia), single dose 10 μM; read-out: Growth inhibition percentage (GI %)
M14 = experiment: NCI 60 antitumor screening (single dose); conditions: Homo sapiens; M14 (melanoma), single dose 10 μM; read-out: Growth inhibition percentage (GI %)
Method: as §1, §2

Structure (SMILES)	inhibition at 10 µM (SK-MEL-28)	inhibition at 10 µM (HS 578T)	inhibition at 10 µM (OVCAR-8)	inhibition at 10 µM (KM 12)	inhibition at 10 µM (OVCAR-3)	inhibition at 10 µM (A549/ATCC)	inhibition at 10 µM (OVCAR-5)	inhibition at 10 µM (NCI-H226)	inhibition at 10 µM (NCI-H522)	inhibition at 10 µM (NCI-H23)	inhibition at 10 µM (PC-3)	inhibition at 10 µM (CAKI-1)	inhibition at 10 µM (SK-OV-3)	inhibition at 10 µM (OVCAR-4)	inhibition at 10 µM (HOP-62)	inhibition at 10 µM (NCI-H322M)	inhibition at 10 µM (U251)	inhibition at 10 µM (NCI-H460)	inhibition at 10 µM (SF-268)	inhibition at 10 µM (MCF7)	other results
Fc1cccc(/C=N/Nc2nc(N/N=C/c3cccc(F)c3)nc(N3CCCCC3)n2)c1 [compound 7e, 2,4-Bis[(E)-2-[(3-Fluorophenyl)methylidene]hydrazin-1-yl]-6-(piperidin-1-yl)-1,3,5-triazine]	9.32%	-13.2%	14.6%	17.9%	10.6%	10.6%	-8.1%	17.9%	8.08%	9.62%	31.4%	9.66%	-14.6%	13.7%	-7.48%	-8.36%	5.46%	8.63%	0.36%	26.7%	inhibition at 10 µM (T-47D): 30.6%; inhibition at 10 µM (HL-60(TB)): 31.9%; inhibition at 10 µM (SN 12C): 5.08%; inhibition at 10 µM (SK-MEL-5): 32.1%; inhibition at 10 µM (DU-145): 2.92%; inhibition at 10 µM (MOLT-4): 40.4%
O=C(NNc1nc(NNC(=O)c2ccccc2)nc(N2CCOCC2)n1)c1ccccc1 [compound 8d, N'-[4-(morpholin-4-yl)-6-(phenylhydrazido)-1,3,5-triazin-2-yl]benzohydrazide]	-19.5%	-6.14%	3.15%	-5.4%	-5.45%	1.66%	-4.08%	4.42%	-2.83%	5.69%	-7.68%	3.15%	-18.5%	-10.6%	-11.8%	4.42%	-0.3%	-1.86%	-1.5%	0.71%	inhibition at 10 µM (M14): -0.8%; inhibition at 10 µM (T-47D): -10.8%; inhibition at 10 µM (HL-60(TB)): -15.3%; inhibition at 10 µM (SN 12C): -6.53%; inhibition at 10 µM (SK-MEL-5): 0.18%; inhibition at 10 µM (DU-145): -7.98%; inhibition at 10 µM (MOLT-4): -8.9%
Brc1cccc(/C=N/Nc2nc(N/N=C/c3cccc(Br)c3)nc(N3CCCCC3)n2)c1 [compound 7c, 2,4-Bis[(E)-2-[(3-Bromophenyl)methylidene]hydrazin-1-yl]-6-(piperidin-1-yl)-1,3,5-triazine]	0.82%	-21.2%	2.62%	-6.72%	0.95%	10.6%	-15.9%	8.12%	8.55%	-5.83%	19.8%	0.79%	-9%	11.6%	-8.46%	-3.53%	3.1%	-2.41%	-5.8%	20.2%	inhibition at 10 µM (T-47D): 12.3%; inhibition at 10 µM (HL-60(TB)): 7.75%; inhibition at 10 µM (SN 12C): -1.41%; inhibition at 10 µM (SK-MEL-5): 28.6%; inhibition at 10 µM (DU-145): -1.2%; inhibition at 10 µM (MOLT-4): 31.6%
Brc1ccccc1/C=N/Nc1nc(N/N=C/c2ccccc2Br)nc(N2CCOCC2)n1 [compound 6b, 2,4-Bis[(E)-2-[(2-bromophenyl)methylidene]hydrazin-1-yl]-6-(morpholin-4-yl)-1,3,5-triazine]	0.72%	-14.4%	3.39%	10.9%	14.8%	2.89%	-11.2%	4.87%	13.4%	-4.52%	16%	-8.66%	-13.9%	3.79%	-8.36%	3.22%	3.53%	-2.92%	-2.5%	14.8%	inhibition at 10 µM (T-47D): 21%; inhibition at 10 µM (HL-60(TB)): 19.5%; inhibition at 10 µM (SN 12C): 1.16%; inhibition at 10 µM (SK-MEL-5): 30.4%; inhibition at 10 µM (DU-145): 1.72%; inhibition at 10 µM (MOLT-4): 27.4%
COC(=O)C(Cc1ccccc1)Nc1nc(NC(Cc2ccccc2)C(=O)OC)nc(N2CCOCC2)n1 (centres unmarked) [compound 8c, Methyl 2-({4-[(1-methoxy-1-oxo-3-phenylpropan-2-yl)amino]-6-(morpholin-4-yl)-1,3,5-triazin-2-yl}amino)-3-phenylpropanoate]	-8.72%	-1.3%	0.4%	0.3%	-11.1%	-8.33%	-6.25%	-1.61%	9.02%	-6.51%	-2.72%	13.2%	-2.71%	-6.53%	2.66%	2.57%	-5.23%	-6.88%	-2.56%	2.21%	inhibition at 10 µM (T-47D): -0.53%; inhibition at 10 µM (HL-60(TB)): -2.51%; inhibition at 10 µM (SN 12C): -3.62%; inhibition at 10 µM (SK-MEL-5): 1.32%; inhibition at 10 µM (DU-145): -11.6%; inhibition at 10 µM (MOLT-4): -1.03%
